Test [1] deals with T1, 5-HT2 receptors in the rat frontal cortex (Rattus norvegicus, UniProt P14842).
T1 construct: Fresh frontal cortex tissue from rat brain is homogenized; from tissue; host or cells: rat frontal cortex membranes
The experiment in a line: inhibition of specific 3H-spiperone binding to 5-HT2 receptors in rat frontal cortex. The note with it: rat frontal cortex membranes, 1 nM 3H-spiperone, 1 h at 37° C., pH 7.7. Here is the method: This test has been carried out as follows:
Fresh frontal cortex tissue from rat brain is homogenized in a 20 fold volume of Tris-HCl buffer (50 mM, pH 7.7, containing 4 mM CaCl2, 10 μM pargyline, and 0.1% ascorbic acid), and centrifuged. The pellets are resuspended in a 25 fold volume of the same buffer, incubated for 15 min at 37° C., and recentrifuged. The pellets are frozen at -20° C. and resuspended in a 360 fold volume of the same buffer as above before use for the binding experiment. The composition of the assay mixtures (total volume =2 ml) is as follows: 50 mM Tris-HCl pH 7,7, 4 mM CaCl2, 10 μM pargyline, 0.1% ascorbic acid, membranes corresponding to 5 mg of original tissue weight, and 1 nM ^3 H-spiperone. The assays for the determination of nonspecific binding additionally contain cinanserin in a concentration of 1 μM. […] After incubation for 1 hour at 37° C., the assay mixtures are rapidly filtered through Whatman GF/B filters and washed twice with 5 ml of ice cold incubation buffer.

Test [2] concerns locomotion in mice. Kind of test: inhibition of locomotion in mice (neuroleptic activity). The class given is in vivo, mice (male, OF-1). To be noted: Mus musculus, po, read-out: EDmin (inhibition of locomotion). Here is the method:
In this test groups of 3 male mice (18-24 g, OF-1, Sandoz Basle) received 3.2, 10, 32, 100 and 320 mg p.o. of the test drug.

Test [3] deals with T2, 3H-spiperone binding sites in the brain (calf brain striatal tissue) (Bos taurus, UniProt P20288).
T2 construct: fresh calf brain striatal tissue was homogenized; from tissue; host or cells: calf brain striatal membranes
T2 sequence (P20288 whole entry): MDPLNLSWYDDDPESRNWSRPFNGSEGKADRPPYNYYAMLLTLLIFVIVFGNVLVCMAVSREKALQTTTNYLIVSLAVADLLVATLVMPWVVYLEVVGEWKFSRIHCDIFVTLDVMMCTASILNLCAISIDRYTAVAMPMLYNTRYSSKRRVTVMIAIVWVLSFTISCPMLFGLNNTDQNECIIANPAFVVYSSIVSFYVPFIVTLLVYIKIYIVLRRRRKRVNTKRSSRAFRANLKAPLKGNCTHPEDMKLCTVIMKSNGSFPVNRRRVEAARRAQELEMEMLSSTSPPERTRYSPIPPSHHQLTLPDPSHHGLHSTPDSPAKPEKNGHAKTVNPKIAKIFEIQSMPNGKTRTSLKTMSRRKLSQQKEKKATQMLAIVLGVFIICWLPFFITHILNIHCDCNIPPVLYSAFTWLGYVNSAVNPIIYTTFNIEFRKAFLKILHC
Kind of test: inhibition of specific 3H-spiperone binding in calf brain striatal tissue. To be noted: calf brain striatal membranes, 0.1 nM 3H-spiperone, 5×10^-7 M cinanserin, 40 minutes at room temperature.

The subject of test [4] is paradoxical sleep (PS). Kind of test: reduction of paradoxical sleep (PS) in the 48 h sleep EEG in rats. The class given is in vivo. To be noted: 3.2-32 mg/kg p.o. The source says: Kleinlogel "EEG in Drug Research" ed. by Hermann, Gustav Fischer Verlag, Stuttgart, N.Y., 75-88 (1982)].

Data on seven compounds can be found in patent publication US4673674A, “Diazepinoindoles useful for treating depression, schizophrenia, social withdrawal or anxiety and pharmaceutical compositions containing them” (Sandoz Pharmaceuticals Corp., priority 1984, dated 1987).

Like-named read-outs stand apart in the source and are kept apart here.

T1 sequence (P14842 whole entry): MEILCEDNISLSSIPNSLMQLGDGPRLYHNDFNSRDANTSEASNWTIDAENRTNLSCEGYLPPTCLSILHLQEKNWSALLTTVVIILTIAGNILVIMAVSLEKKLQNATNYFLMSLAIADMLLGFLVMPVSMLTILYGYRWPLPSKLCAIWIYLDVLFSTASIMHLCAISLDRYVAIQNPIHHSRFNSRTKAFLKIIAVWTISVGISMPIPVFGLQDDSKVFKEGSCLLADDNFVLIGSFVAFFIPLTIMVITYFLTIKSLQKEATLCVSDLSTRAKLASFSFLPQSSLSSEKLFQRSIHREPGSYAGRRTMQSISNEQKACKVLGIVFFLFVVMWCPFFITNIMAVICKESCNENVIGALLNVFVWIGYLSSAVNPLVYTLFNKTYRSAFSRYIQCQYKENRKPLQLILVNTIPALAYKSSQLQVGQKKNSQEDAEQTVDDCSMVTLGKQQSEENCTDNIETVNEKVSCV

Turning to `CN1CCc2c(-c3ccccc3)c3ccccc3n2CC1` [Example 1, 2,3,4,5-Tetrahydro-3-methyl-11-phenyl-1H-[1,4]diazepino[1,7-a]indole], the IC50 in test [1] fell in the range of 1 to 10 nM.
On the same count and under the same terms, the figure for `c1ccc(-c2c3n(c4ccccc24)CCNCC3)cc1` [Example 2, 2,3,4,5,-Tetrahydro-11-phenyl-1H-[1,4]diazepino[1,7-a]indole] is 1 to 10 nM; for `C=CCN1CCc2c(-c3ccccc3)c3ccccc3n2CC1` [Example 3, 3-Allyl-2,3,4,5-tetrahydro-11-phenyl-1H-[1,4]diazepino-[1,7-a]indole] it is 1 to 10 nM; for `c1ccc(-c2c3n(c4ccccc24)CCN(CC2CC2)CC3)cc1` [Example 4, 3-Cyclopropylmethyl-2,3,4,5-tetrahydro-11-phenyl-1H-[1,4]diazepino[1,7-a]indole] it is 1 to 10 nM.
For `CN1CCc2c(-c3ccc(Cl)cc3)c3ccccc3n2CC1` [Example 5j], in test [2] (male mice, 1 hour after administration), the minimal effective dose worked out at 3.2 mg/kg. This compound registered an IC50 in test [3] of 137 nM.
In test [1], `CN(C)CCC=C1c2ccccc2CCc2ccccc21` [amitriptyline, reference compound] displayed an IC50 of 15 nM. Further, in test [4], the “reduction of paradoxical sleep (PS)” value is “reduce further the paradoxical sleep (PS) without rebound”.
Consider `CSc1ccc2c(c1)N(CCC1CCCCN1C)c1ccccc1S2` (stereo not drawn) [thioridazine, reference compound], for which the minimal effective dose in test [2] (1 h) was in the range of 10 to 32 mg/kg.
